For one test, the target named is T1, human VR1 (Homo sapiens, UniProt Q8NER1).
T1 construct: expressed in transfected cells
T1 sequence (Q8NER1 whole entry): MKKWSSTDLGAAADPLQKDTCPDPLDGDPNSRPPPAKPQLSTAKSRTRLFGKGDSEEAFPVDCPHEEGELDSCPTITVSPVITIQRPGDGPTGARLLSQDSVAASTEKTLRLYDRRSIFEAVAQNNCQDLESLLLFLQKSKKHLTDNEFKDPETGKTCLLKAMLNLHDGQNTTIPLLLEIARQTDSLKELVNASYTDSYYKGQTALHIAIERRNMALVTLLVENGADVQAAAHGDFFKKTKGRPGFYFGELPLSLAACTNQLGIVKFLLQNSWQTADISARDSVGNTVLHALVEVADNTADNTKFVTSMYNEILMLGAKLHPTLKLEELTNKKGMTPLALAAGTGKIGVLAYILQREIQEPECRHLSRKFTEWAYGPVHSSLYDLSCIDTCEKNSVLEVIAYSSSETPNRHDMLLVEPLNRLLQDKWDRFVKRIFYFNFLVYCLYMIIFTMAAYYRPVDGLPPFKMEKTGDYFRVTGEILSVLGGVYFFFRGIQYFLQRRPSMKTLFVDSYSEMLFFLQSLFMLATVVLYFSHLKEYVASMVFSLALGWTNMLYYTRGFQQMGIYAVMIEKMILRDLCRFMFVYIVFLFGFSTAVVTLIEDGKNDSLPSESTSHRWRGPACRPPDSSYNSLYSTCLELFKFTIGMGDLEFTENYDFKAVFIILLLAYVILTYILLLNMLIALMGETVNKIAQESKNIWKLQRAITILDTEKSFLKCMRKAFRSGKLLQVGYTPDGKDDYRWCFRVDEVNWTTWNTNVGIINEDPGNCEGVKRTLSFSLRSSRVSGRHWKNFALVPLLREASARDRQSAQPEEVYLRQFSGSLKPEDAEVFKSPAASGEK
As to the kind of experiment: Capsaicin-induced Ca2+ influx in the human VR1-transfected CHO cell line (Assay 1). Type of test: cell-based.
Conditions: not given
As to the method:
[Measurement of Capsaicin-Induced Ca^2+ Influx in the Human VR1-Transfected CHO Cell Line] (Assay 1)
(1) Establishment of the Human VR1-CHOluc9aeq Cell Line
The cloned hVR1 cDNA was constructed with pcDNA3 vector and transfected into a CHOluc9aeq cell line. The cell line contains aequorin and CRE-luciferase reporter genes as read-out signals. The transfectants were cloned by limiting dilution in selection medium (DMEM/F12 medium (Gibco BRL) supplemented with 10% FCS, 1.4 mM Sodium pyruvate, 20 mM HEPES, 0.15% Sodium bicarbonate, 100 U/ml penicillin, 100 μg/ml streptomycin, 2 mM glutamine, non-essential amino acids and 2 mg/ml G418). Ca^2+ influx was examined in the capsaicin-stimulated clones. […] The human VR1-CHOluc9aeq cells were maintained in the selection medium and passaged every 3-4 days at 1-2.5×10^5 cells/flask ([…]).
(2) Measurement of Ca^2+ Influx Using FDSS-3000
Human VR1-CHOluc9aeq cells were suspended in a culture medium which is the same as the selection medium except for G418 and seeded at a density of 1,000 cells per well into 384-well plates (black walled clear-base/Nalge Nunc International). […] After washing twice with assay buffer the cells were incubated with a test compound or vehicle for 20 min at 25° C. […] Integral R was calculated and compared with controls.
For `O=C(Nc1cccc(OC(F)(F)F)c1)Nc1ccccc1CCO` [Example 2-2, N-[2-(2-hydroxyethyl)phenyl]-N′-[3(trifluoromethoxy)phenyl]urea], the IC50 is < 100 nM.

Consider `COc1cc(CNC(=O)Nc2ccc(Oc3ccccc3)cc2)ccc1O` [Example 76], for which the IC50 was < 100 nM.

Still in this test, the particulars now being: human VR1-CHOluc9aeq cells, 10 nM capsaicin; compound purity about 40 to 90%; read-out: hVR1 class.
`COc1ccc(COc2cc(CNC(=O)Nc3ccccc3)ccc2OC)cc1` [Example 6]: the IC50 fell in the range of 500 to 1000 nM.

For the molecule `COc1ccc(COc2cc(CNC(=O)Nc3ccc(F)cc3)ccc2OC)cc1` [Example 7], the IC50 was in the range of 500 to 1000 nM.

Take `COc1cccc(CNC(=O)Nc2cccc(SC)c2)c1` [Example 8]: the IC50 lay in the range of 500 to 1000 nM.

Turning to `COc1cccc(CNC(=O)Nc2ccccc2)c1` [Example 9], the IC50 was 500 to 1000 nM.

Turning to `COc1cccc(CNC(=O)Nc2cccc(OC)c2)c1` [Example 10], the IC50 was in the range of 500 to 1000 nM.

`COc1cccc(CNC(=O)Nc2ccc(F)cc2)c1` [Example 11]: the IC50 was 500 to 1000 nM.

For the molecule `COc1ccc(CNC(=O)Nc2cccc(SC)c2)cc1OC` [Example 12], the IC50 was 500 to 1000 nM.

For `COc1ccc(CNC(=O)Nc2ccccc2)cc1OC` [Example 13], the IC50 lay in the range of 500 to 1000 nM.

In the case of `COc1cccc(NC(=O)NCc2ccc(OC)c(OC)c2)c1` [Example 14], the IC50 was in the range of 500 to 1000 nM.

Regarding `COc1ccc(CNC(=O)Nc2ccc(F)cc2)cc1OC` [Example 15], the IC50 lay within 500 to 1000 nM.

Consider `CSc1cccc(NC(=O)NCc2ccc3c(c2)OCO3)c1` [Example 16], for which the IC50 lay within 500 to 1000 nM.

In the case of `O=C(NCc1ccc2c(c1)OCO2)Nc1ccccc1` [Example 17], the IC50 lay within 500 to 1000 nM.

Take `COc1cccc(NC(=O)NCc2ccc3c(c2)OCO3)c1` [Example 18]: the IC50 was in the range of 500 to 1000 nM.

For `O=C(NCc1ccc2c(c1)OCO2)Nc1ccc(F)cc1` [Example 19], the IC50 was 500 to 1000 nM.

Regarding `COc1cc2c(cc1OC)CN(C(=O)Nc1cccc(SC)c1)CC2` [Example 20], the IC50 was 500 to 1000 nM.

Take `COc1cc2c(cc1OC)CN(C(=O)Nc1ccccc1)CC2` [Example 21]: the IC50 was in the range of 500 to 1000 nM.

Consider `COc1cccc(NC(=O)N2CCc3cc(OC)c(OC)cc3C2)c1` [Example 22], for which the IC50 lay in the range of 500 to 1000 nM.

For `COc1cc2c(cc1OC)CN(C(=O)Nc1ccc(F)cc1)CC2` [Example 23], the IC50 fell in the range of 500 to 1000 nM.

On to `COCOc1cccc(CNC(=O)Nc2ccccc2)c1` [Example 24], for which the IC50 lay in the range of 500 to 1000 nM.

With `COCOc1cccc(CNC(=O)Nc2cccc(OC)c2)c1` [Example 25], the IC50 fell in the range of 500 to 1000 nM.

Consider `COCOc1cccc(CNC(=O)Nc2cccc(SC)c2)c1` [Example 26], for which the IC50 lay in the range of 500 to 1000 nM.

As for `COCOc1cccc(CNC(=O)Nc2ccc(F)cc2)c1` [Example 27], the IC50 fell in the range of 500 to 1000 nM.

For `O=C(NCc1cccc(O)c1)Nc1ccccc1` [Example 28], the IC50 lay within 500 to 1000 nM.

Regarding `CSc1cccc(NC(=O)NCc2cccc(O)c2)c1` [Example 29], the IC50 was 500 to 1000 nM.

On to `COc1cccc(NC(=O)NCc2cccc(O)c2)c1` [Example 30], for which the IC50 was in the range of 500 to 1000 nM.

For `O=C(NCc1cccc(O)c1)Nc1ccc(F)cc1` [Example 31], the IC50 lay in the range of 500 to 1000 nM.

`COc1cc(CNC(=O)Nc2cccc(SC)c2)ccc1O` [Example 32]: the IC50 lay in the range of 100 to 500 nM.

For the molecule `COc1cc(CNC(=O)Nc2ccccc2)ccc1O` [Example 33], the IC50 fell in the range of 500 to 1000 nM.

Turning to `COc1ccc(CNC(=O)Nc2cccc(SC)c2)cc1O` [Example 35], the IC50 lay within 500 to 1000 nM.

Regarding `COc1ccc(CNC(=O)Nc2ccccc2)cc1O` [Example 36], the IC50 fell in the range of 500 to 1000 nM.

`CSc1cccc(NC(=O)NCc2cccc(Cl)c2)c1` [Example 37]: the IC50 was 500 to 1000 nM.

Turning to `O=C(NCc1cccc(Cl)c1)Nc1ccccc1` [Example 38], the IC50 was 500 to 1000 nM.

Turning to `COc1cccc(NC(=O)NCc2cccc(Cl)c2)c1` [Example 39], the IC50 was 500 to 1000 nM.

With `O=C(NCc1cccc(Cl)c1)Nc1ccc(F)cc1` [Example 40], the IC50 is 500 to 1000 nM.

`O=C(NCc1ccc(Cl)c(Cl)c1)Nc1ccccc1` [Example 42]: the IC50 fell in the range of 100 to 500 nM.

Turning to `COc1cccc(NC(=O)NCc2ccc(Cl)c(Cl)c2)c1` [Example 43], the IC50 was in the range of 100 to 500 nM.

`O=C(NCc1ccc(Cl)c(Cl)c1)Nc1ccc(F)cc1` [Example 44]: the IC50 is 100 to 500 nM.

Regarding `CSc1cccc(NC(=O)NCc2cccc(F)c2)c1` [Example 45], the IC50 fell in the range of 500 to 1000 nM.

On to `O=C(NCc1cccc(F)c1)Nc1ccccc1` [Example 46], for which the IC50 lay within 500 to 1000 nM.

Turning to `COc1cccc(NC(=O)NCc2cccc(F)c2)c1` [Example 47], the IC50 was 500 to 1000 nM.

Regarding `O=C(NCc1cccc(F)c1)Nc1ccc(F)cc1` [Example 48], the IC50 lay within 500 to 1000 nM.

As to `CSc1cccc(NC(=O)NCc2ccc(F)c(F)c2)c1` [Example 49], the IC50 lay in the range of 500 to 1000 nM.

Regarding `O=C(NCc1ccc(F)c(F)c1)Nc1ccccc1` [Example 50], the IC50 was in the range of 500 to 1000 nM.

Take `COc1cccc(NC(=O)NCc2ccc(F)c(F)c2)c1` [Example 51]: the IC50 fell in the range of 500 to 1000 nM.

As for `O=C(NCc1ccc(F)c(F)c1)Nc1ccc(F)cc1` [Example 52], the IC50 lay within 500 to 1000 nM.

`COc1cc(CNC(=O)Nc2cccc(C(C)=O)c2)ccc1O` [Example 59]: the IC50 was in the range of 500 to 1000 nM.

For `COC(=O)c1ccccc1NC(=O)NCc1ccc(O)c(OC)c1` [Example 61], the IC50 is 500 to 1000 nM.

With `COc1cc(CNC(=O)Nc2ccc([N+](=O)[O-])cc2Cl)ccc1O` [Example 67], the IC50 fell in the range of 500 to 1000 nM.

In the case of `COc1cc(CNC(=O)NCc2ccc(Br)cc2)ccc1O` [Example 68], the IC50 fell in the range of 100 to 500 nM.

In the case of `COc1cc2c(cc1O)CN(C(=O)Nc1ccc(Cl)c(C(F)(F)F)c1)CC2` [Example 69], the IC50 was 100 to 500 nM.

On to `COc1cc(CNC(=O)Nc2ccccc2F)ccc1O` [Example 75], for which the IC50 was 100 to 500 nM.

As to `COc1cc(CNC(=O)NCCc2ccccc2)ccc1O` [Example 77], the IC50 is 100 to 500 nM.

For the molecule `COc1cc(CNC(=O)Nc2ccccc2Cl)ccc1O` [Example 79], the IC50 was 100 to 500 nM.

Turning to `COc1cc(CNC(=O)Nc2cc(C(F)(F)F)ccc2Cl)ccc1O` [Example 80], the IC50 is < 100 nM.

With `COc1cc(CNC(=O)Nc2cccc(Cl)c2)ccc1O` [Example 81], the IC50 was < 100 nM.

For `NS(=O)(=O)c1ccc2c(c1)CN(C(=O)Nc1ccc(Cl)c(C(F)(F)F)c1)CC2` [Example 84], the IC50 was 100 to 500 nM.

For the molecule `CNS(=O)(=O)c1ccc2c(c1)CN(C(=O)Nc1ccc(Cl)c(C(F)(F)F)c1)CC2` [Example 85], the IC50 was in the range of 500 to 1000 nM.

Take `CN(C)S(=O)(=O)c1ccc2c(c1)CN(C(=O)Nc1ccc(Cl)c(C(F)(F)F)c1)CC2` [Example 86]: the IC50 is 500 to 1000 nM.

Turning to `CN(C)CCNS(=O)(=O)c1ccc2c(c1)CN(C(=O)Nc1ccc(Cl)c(C(F)(F)F)c1)CC2` [Example 87], the IC50 was in the range of 500 to 1000 nM.

For the molecule `CN(C)S(=O)(=O)c1ccc2c(c1)CN(C(=O)Nc1ccc(Oc3ccccc3)cc1)CC2` [Example 88], the IC50 lay in the range of 500 to 1000 nM.

Turning to `O=C(Nc1ccc(Oc2ccccc2)cc1)N1CCc2ccc(S(=O)(=O)N3CCN(CCO)CC3)cc2C1` [Example 89], the IC50 fell in the range of 500 to 1000 nM.

Take `CS(=O)(=O)Nc1ccc2c(c1)CN(C(=O)NCc1ccc(Br)cc1)CC2` [Example 90]: the IC50 is 500 to 1000 nM.

For `CS(=O)(=O)Nc1ccc2c(c1)CN(C(=O)Nc1ccc(Oc3ccccc3)cc1)CC2` [Example 91], the IC50 fell in the range of 500 to 1000 nM.

With `CS(=O)(=O)Nc1ccc2c(c1)CN(C(=O)Nc1ccc(Cl)c(C(F)(F)F)c1)CC2` [Example 92], the IC50 was 100 to 500 nM.

On to `CS(=O)(=O)Nc1ccc2c(c1)CN(C(=O)Nc1ccc(Br)cc1)CC2` [Example 93], for which the IC50 lay in the range of 500 to 1000 nM.

For `O=C(Nc1ccc(Cl)c(C(F)(F)F)c1)NC1CCCc2ccc([N+](=O)[O-])cc21` (stereo not drawn) [Example 94], the IC50 is 500 to 1000 nM.

As to `CNS(=O)(=O)c1ccc2c(c1)CN(C(=O)Nc1ccc(Oc3ccccc3)cc1)CC2` [Example 95], the IC50 was in the range of 500 to 1000 nM.

As to `CC(=O)Nc1ccc2c(c1)C(NC(=O)Nc1ccc(Cl)c(C(F)(F)F)c1)CCC2` (stereo not drawn) [Example 97], the IC50 lay within 500 to 1000 nM.

Consider `O=C(Nc1ccccc1F)Nc1ccccc1CCO` [Example 130], for which the IC50 lay within 500 to 1000 nM.

Turning to `O=C(Nc1ccccc1CCO)Nc1cccc(Cl)c1Cl` [Example 137], the IC50 is 500 to 1000 nM.

Consider `O=C(Nc1ccc(Cl)cc1Cl)Nc1ccccc1CCO` [Example 138], for which the IC50 fell in the range of 500 to 1000 nM.

For `O=C(Nc1ccccc1CCO)Nc1c(Cl)cccc1Cl` [Example 139], the IC50 is 500 to 1000 nM.

Consider `CCOC(=O)c1ccccc1NC(=O)Nc1ccccc1CCO` [Example 140], for which the IC50 fell in the range of 500 to 1000 nM.

On to `O=C(Nc1ccccc1CCO)Nc1ccccc1-c1ccccc1` [Example 141], for which the IC50 is 500 to 1000 nM.

For the molecule `CC(C)c1cccc(C(C)C)c1NC(=O)Nc1ccccc1CCO` [Example 142], the IC50 is 500 to 1000 nM.

Consider `O=C(Nc1ccccc1CCO)Nc1ccc(Cl)cc1C(F)(F)F` [Example 143], for which the IC50 was in the range of 500 to 1000 nM.

Take `O=C(Nc1cc(C(F)(F)F)ccc1Cl)Nc1ccccc1CCO` [Example 144]: the IC50 lay in the range of 100 to 500 nM.

As to `O=C(Nc1cc(Cl)ccc1Cl)Nc1ccccc1CCO` [Example 162], the IC50 lay in the range of 500 to 1000 nM.

For the molecule `CCOC(=O)c1ccc(NC(=O)Nc2ccccc2CCO)cc1` [Example 163], the IC50 fell in the range of 500 to 1000 nM.

For the origin of these results see patent US20050154230A1, “Urea derivatives” (Bayer HealthCare AG, priority 2001, published 2005).
